Assay results: patent US10316039B2, “P2X3 and/or P2X2/3 compounds and methods” (Asana Biosciences, LLC, priority 2013, dated 2019)

Key:
P2X3 = biological target: T1, P2X3 (UniProt P56373); test: P2X3 FLIPR intracellular calcium assay; assay type: cell-based; conditions: agonist at EC75, species (human or rat) not given
T1 sequence (P56373 1-397): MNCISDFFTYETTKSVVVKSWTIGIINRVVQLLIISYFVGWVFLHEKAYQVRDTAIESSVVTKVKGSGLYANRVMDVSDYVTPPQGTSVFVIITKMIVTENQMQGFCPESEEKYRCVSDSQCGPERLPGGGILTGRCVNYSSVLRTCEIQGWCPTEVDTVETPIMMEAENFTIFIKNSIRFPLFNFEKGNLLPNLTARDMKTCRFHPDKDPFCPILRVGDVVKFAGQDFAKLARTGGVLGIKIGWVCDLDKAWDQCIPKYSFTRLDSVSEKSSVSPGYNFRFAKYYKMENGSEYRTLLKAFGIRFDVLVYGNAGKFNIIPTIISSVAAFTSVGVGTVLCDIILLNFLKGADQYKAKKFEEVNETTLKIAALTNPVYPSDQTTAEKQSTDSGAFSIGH
How it was run: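 Human P2X3-HEK, human P2X2/3-TRex293, rat P2X2/3-TRex293 or rat P2X3 TRex-CHO cells loaded with Calcium 4 dye (1.8 mM probenecid, pH 7.4).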

[1] = system: formalin-induced hind limb flinching; test: Formalin induced pain (Automated Nociception Analyzer test); assay type: in vivo; conditions: rat, 100 mg/kg oral gavage, 30 min before footpad formalin
Procedure: FIG. 3 illustrates the antinociceptive effects of the compound of example 22 in a rat model of ongoing spontaneous pain. The compound of example 22 was administered by oral gavage at a dose of 100 mg/kg followed 30 min later by a footpad injection of a dilute formalin solution. Formalin elicits a typical biphasic nociceptive response that manifests as spontaneous hind limb flinches which are counted and binned over 5 min epochs. […] Male Sprague Dawley rats of young adult age group and body weight range of 200-250 g were included in the study. Animals were housed under a 12 h light/dark cycle with food and water ad libitum. Animals were acclimatized in the observation chambers of Automated Nociception Analyzer (ANA) for 45-60 min, twice daily for two days prior to the study day. On the day of the study, metal bands were glued to the plantar surface of the right hind paw of each animal enrolled in the study set and kept in plastic observation chambers for 10-15 min. […] […] count data for each animal was recorded from 1 to 60 min post formalin injection, using ANA motion analysis software. The study was analyzed in 2 phases, the early phase extended from 0-10 min and second phase extended from 11-60 min post formalin injection. […]

IC50 (P2X3) [nM]	SMILES	second phase flinching response to formalin [1]
1 to 100	C[C@H](NC(=O)c1cc(-n2nncc2C(F)F)c2ncc(-c3ccc(Cl)s3)n2c1)c1nnc[nH]1 [Example 38]	–
1 to 100	CC[C@H](NC(=O)c1cc(-n2nncc2C(F)F)c2ncc(-c3ccc(C)s3)n2c1)c1nnc[nH]1 [Example 52]	–
1 to 100	CCc1cnnn1-c1cc(C(=O)NCc2ccc(C)nc2)cn2c(-c3ccc(C)s3)cnc12 [Example 22]	attenuated the second phase flinching response to formalin
